Source: paper PMC9775191, “A Subset Screen of the Compounds Australia Scaffold Library Identifies 7-Acylaminodibenzoxazepinones as Potent and Selective Hits for Anti-Giardia Drug Discovery” (Biomedicines, 2022)
Read-outs that look alike come from different tables or passages of the source.

Columns and labels:
[1] = system: G. duodenalis BRIS/91/HEPU/1279; experiment: Primary Giardia screen at 10 µM (live-cell imaging, automated counting); type: cell-based, Giardia duodenalis; details: for inhibition at 10 µM: Giardia duodenalis
Outline: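 Compounds were tested once each at 10 μM final (0.2% DMSO) in culture medium under 3% O2, 5% CO2 in N2. Growth was read at 24 and 48 h by live-cell imaging with automated counting, and inhibition expressed as percent growth versus 0.2% DMSO vehicle after media-only background subtraction.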

[2] = system: G. duodenalis BRIS/91/HEPU/1279; experiment: Giardia dose response assay, assemblage B; type: cell-based, Giardia duodenalis; details: for IC50 / inhibition at 10 µM: Giardia duodenalis; for inhibition at 10 µM: read-out: % inhibition @ 10µM 48h (comment), Table S2 comment
Description: In these assays, compounds were serially diluted (8–12-point doubling dilutions in technical duplicate) in DMSO control media, with all test wells inoculated with parasites (1.5 × 10^4 parasites for BRIS/91/HEPU/1279 and BRIS/91/HEPU/1279m1, or 3 × 10^3 parasites for BRIS/87/HEPU/713). […] All plates were sealed in culture chambers and gassed with 3% O2, 5% CO2 in N2 and incubated at 37 °C for 48 h, with parasites imaged and enumerated at 24 and 48 h. Growth inhibition was calculated as a percentage relative to vehicle controls minus any background as described above and IC50 values were determined using log-linear interpolation as previously described. […] Statistical comparison of IC50 values when required were performed using Student’s t-test.

[3] = system: Neonatal foreskin fibroblast (NFF) cells; experiment: Mammalian cell cytotoxicity assay (sulforhodamine B); type: cell-based, human; details: for SI (48h Gd): Table S2, NFF vs 48 h Giardia IC50; for inhibition at 20 µM: ±SD
Description: The selectivity of compounds of interest was assessed against NFF cells. Assays were performed using sulforhodamine B and included media only, negative (no compound, no DMSO), and vehicle (DMSO) controls as previously described. A chloroquine control plate was included in each assay. […] Repurchased SN00797640 was tested in dose–response from 100 µM against NFF. Selectivity indices (SI) were calculated by dividing mammalian cell IC50 values by G. duodenalis BRIS/91/HEPU/1279 IC50 values.

[4] = system: Acinetobacter baumannii (ATCC 19606); experiment: Anti-bacterial activity assay; type: cell-based; details: ATCC19606, 50 µM
Description: (§1) The activity of compounds against methicillin resistant Staphylococcus aureus (ATCC 43300), Escherichia coli (ATCC 25922), Acinetobacter baumannii (ATCC 19606) and Klebsiella pneumoniae (ATCC 700603) was assessed at 50 µM in duplicate as previously described. In brief, mid-log phase bacteria cultures were added to 384-well microtiter plate wells containing compound to final cell density of 5 × 10^5 CFU/mL in 50 µL. Plates were then covered and incubated at 37 °C for 18 h without shaking. Inhibition of bacterial growth was determined by measuring absorbance at 600 nm (Tecan M1000 Pro monochromator plate reader) and calculating percentage growth inhibition relative to the negative media and bacteria without inhibitors. Vancomycin hydrochloride (Sigma-Aldrich an affiliate of Merck KGaA, Darmstadt, Germany, #861987) and colistin sulfate (Sigma-Aldrich an affiliate of Merck KGaA, Darmstadt, Germany, C4461) were on each plate as positive controls for Gram-positive (S. aureus) and Gram-negative (E. coli, A. baumannii and K. pneumoniae) bacteria, respectively.

[5] = system: Escherichia coli (ATCC 25922); experiment: Anti-bacterial activity assay; type: cell-based; details: for inhibition at 50 µM: Escherichia coli, ATCC25922, 50 µM, read-out: Bacterial Inhibition E. coli
Description: as §1

[6] = system: Klebsiella pneumoniae (ATCC 700603); experiment: Anti-bacterial activity assay; type: cell-based; details: ATCC700603, 50 µM, read-out: Bacterial Inhibition K. pneumoniae
Description: as §1

[7] = system: methicillin resistant Staphylococcus aureus (ATCC 43300); experiment: Anti-bacterial activity assay; type: cell-based; details: for inhibition at 50 µM: Staphylococcus aureus, ATCC43300, 50 µM, read-out: Bacterial Inhibition S. aureus
Description: as §1

[8] = 24 h, first singlicate assay, read-out: % Inhibition n=1 24h
[9] = 24 h, re-assessment, read-out: % Inhibition n=2 24h
[10] = 24 h, read-out: Average % Inhibition 24h
[11] = 48 h, first singlicate assay, read-out: % Inhibition n=1 48h
[12] = 48 h, re-assessment, read-out: % Inhibition n=2 48h
[13] = 48 h, read-out: Average % Inhibition 48h
[14] = 24 h, read-out: G. duodenalis IC50 24h, Table S2, 24 h, ±SD, max 10 µM
[15] = 48 h, Table S2, 48 h, ±SD, max 10 µM, read-out: G. duodenalis IC50 48h

Row | SMILES | inhibition at 10 µM [1, 8] [%] | inhibition at 10 µM [1, 9] [%] | inhibition at 10 µM [1, 10] [%] | inhibition at 10 µM [1, 11] [%] | inhibition at 10 µM [1, 12] [%] | inhibition at 10 µM [1, 13] [%] | IC50 [2, 14] [µM] | SI (48h Gd) [3] | inhibition at 50 µM [4] [%] | inhibition at 50 µM [5] [%] | inhibition at 50 µM [6] [%] | inhibition at 50 µM [7] [%] | IC50 [2, 15] [µM] | inhibition at 20 µM ([3]; Homo sapiens, NFF) [%] | further results
1 | Cc1cc(-c2cc(C(=O)Nc3ccc(N4CCN(C)CC4)nc3)c3cnn(C(C)C)c3n2)c(C)o1 [SN00776497] | 94.6 | 97.2 | 95.9 | 98 | 98.5 | 98.2 | 0.25 ± 0.27 | 101 | 19.6 | 5.45 | 8.25 | 55.8 |  |  | Average % Inhibition 48h ([1]; 48 h): > 90%; fold more potent than metronidazole ([2]; 48 h IC50): > 30 fold; IC50 ([2]; 48 h, BRIS/91/HEPU/1279, 48 h, mean ± SD, read-out: IC50 Giardia (48 h)): 0.08 µM; IC50 ([3]; Homo sapiens, NFF, mean ± SD, read-out: IC50 NFF): 8.1 µM; Selectivity ([3]; NFF IC50 divided by G. duodenalis BRIS/91/HEPU/1279 IC50): 101; selectivity index over bacteria ([5]; E. coli, A. baumannii and K. pneumoniae / bacteria, Table S2): > 600; Bacterial Inhibition S. aureus ([7]; 50 µM): 56%
2 | COc1cc(OC)c(C2=CCN(C(=O)c3ccc(C)s3)CC2)c(OC)c1 [SN00769982, COc1cc(OC)c(C2=CCN(CC2)C(=O)c2ccc(C)s2)c(OC)c1] | 46.2 | 0 | 23.1 | 78.1 | 40.5 | 59.3 | > 10 |  | 2.57 | 6.08 | 15.6 | 3.41 | 9.59 | -9.1 ± 3.8 | 
3 | Nc1c(-c2nc(-c3ccccc3)cs2)c2ccccn2c1C(=O)c1ccc2c(c1)OCO2 [SN00785732, O=C(c1ccc2OCOc2c1)c1c(N)c(c2scc(n2)c2ccccc2)c2ccccn12] | 64.4 | 62 | 63.2 | 82.4 | 83.8 | 83.1 | 7.64 | > 2 | 9.69 | 0.23 | 9.49 | 2.41 | 7.68 | 41.6 ± 2.7 | 
4 | CC(C)c1ccc(Nc2ncccc2S(=O)(=O)N2CCCC2)cc1 [SN00799289, CC(C)c1ccc(cc1)Nc1ncccc1S(=O)(=O)N1CCCC1] | 43.9 | 10.1 | 27 | 73.3 | 41.7 | 57.5 | > 10 | > 5 | 4.74 | 1.89 | 14.4 | 3.06 | 3.36 ± 1.52 | 11.4 ± 13.4 | 
5 | COc1ccc(-c2csc(C3=C(N)N(CC(C)(C)CN(C)C)CC3=O)n2)cc1OC [SN00776314, COc1cc(ccc1OC)c1csc(n1)C1=C(N)N(CC1=O)CC(C)(C)CN(C)C] | 31.7 | 16.2 | 24 | 85.1 | 68.5 | 76.8 | > 10 | > 2 | 9.53 | 5.58 | 10.9 | 13.2 | 9.16 | 24 ± 26.8 | inhibition at 10 µM ([2]; 48 h): 48.3%
6 | Cc1nn(-c2ccccc2)c2sc(C(=O)N3CCCCC3)cc12 [SN00783575, O=C(N1CCCCC1)c1cc2c(C)nn(c3ccccc3)c2s1] | 34 | 8.3 | 21.1 | 63.8 | 15.4 | 39.6 | > 10 |  | 15.1 | -4.12 | 16.3 | 6.02 | > 10 | 26.9 ± 2.5 | 
7 | Cc1ccc(NC(=O)CN2C(=O)C3CCCCN3c3ccc(C(=O)N4CCCC4)cc32)cc1 (centres unmarked) [SN00792764, Cc1ccc(cc1)NC(=O)CN1C(=O)C2CCCCN2c2ccc(cc12)C(=O)N1CCCC1] | 43.9 | 27.1 | 35.5 | 59 | 65.8 | 62.4 | > 10 |  | 4.12 | 3.43 | 5.08 | -1.85 | > 10 | 16.6 ± 20.4 | inhibition at 10 µM ([2]; 48 h): 45.9%
8 | CCc1nnc2c3ccccc3nc(N3CCN(c4cccc(Cl)c4)CC3)n12 [SN00788523, CCc1nnc2n1c(nc1ccccc21)N1CCN(CC1)c1cccc(Cl)c1] | 38.2 | 28.9 | 33.6 | 65.8 | 80.4 | 73.1 | > 10 | > 2 | 1.85 | 2.37 | 22.1 | 1.08 | 6.91 | -0.2 ± 22.2 | inhibition at 10 µM ([2]; 48 h): 44%
9 | Cc1ccc(-n2c(=O)c3c(cnn3C)n(CC(=O)Nc3ccccc3C)c2=O)cc1 [SN00784346, Cc1ccc(cc1)n1c(=O)n(CC(=O)Nc2ccccc2C)c2cnn(C)c2c1=O] | 52 | 55.8 | 53.9 | 77.6 | 76.3 | 76.9 | > 10 | > 2 | 0.24 | 3.09 | -2.01 | 5.68 | 7.66 | -1.1 ± 0.8 | 
10 | COc1c(C)cnc(Cn2cnc([N+](=O)[O-])c2)c1C [SN00782023, COc1c(C)cnc(Cn2cnc(c2)N(=O)=O)c1C] | 40.2 | 11.3 | 25.8 | 83.4 | 82.5 | 82.9 | 6.8 | > 3 | 9.49 | 5.99 | 8.15 | 10 | 6.51 | -6.3 ± 3.6 | 
11 | O=[N+]([O-])c1ccc(N2CCC(c3ncc[nH]3)CC2)c2ccncc12 [SN00772378, O=N(=O)c1ccc(N2CCC(CC2)c2ncc[nH]2)c2ccncc12] | 80.4 | 47.7 | 64 | 88.7 | 87.4 | 88 | > 10 |  | 4.73 | 5.55 | 15.6 | 34.4 | 4.79 ± 1.45 | 1.2 ± 1 | 
